Data: US20150328329A1, “LIGANDS THAT TARGET HCV-E2 BINDING SITES ON CD81 AND THERAPEUTIC METHODS USING THEM” (American University of Cairo, priority 2012, published 2015)

Tests used:
[1] = target: T1, recombinant CD81-LEL (GST tag) (Homo sapiens, UniProt P60033); assay: Surface plasmon resonance (Biacore T200) binding of ligands to immobilized recombinant CD81-LEL; conditions: Table A; ligand 600 μM in PBS-0.05% Tween-80; CD81-LEL-GST on CM5 chip
T1 construct: the large extracellular loop of CD81 (CD81-LEL); gift of Dr. Shoshana Levy, Stanford University
T1 sequence (P60033 113-201 limits assumed): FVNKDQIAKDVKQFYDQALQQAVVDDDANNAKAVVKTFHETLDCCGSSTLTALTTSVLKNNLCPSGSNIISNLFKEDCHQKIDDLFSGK
Experimental: SPR analysis was performed using a Biacore T200 workstation (GE Healthcare, NJ, USA). A recombinant form of the CD81-LEL protein with a GST tag (generously provided by Dr. Shoshana Levy, Stanford University) was used to confirm, using an established experimental technique, the binding of several ligands to the protein. Briefly, 10 μM CD81-LEL-GST diluted into 10 mM Na-Acetate buffer pH 4.5 was immobilized for 15 min at a flow speed of 5 μl/min onto a CM5 sensor chip using amine-coupling (EDC-NHS). Approximately 20,000 RU of protein were immobilized on the chip. The ligands were prepared as 600 μM solutions in PBS-0.05% Tween-80 (the running buffer) and they were introduced to the protein using a pre-programmed 3 minute association and 1 minute dissociation interval.
The binding affinity of the most tightly bound ligand in the group selected for ligand conjugate design (Ligand 1) was estimated using data collected from a series of SPR binding experiments conducted at different ligand concentrations. To obtain the kinetic and affinity data needed to estimate the Kd, the original ligand was diluted serially with running buffer to produce seven different ligand concentrations: 1024 μM, […], 256 μM, 128 μM, 64 μM, 32 μM and 0 μM. Data were fitted using a monovalent binding model.
A total of 36 ligands were tested experimentally using surface Plasmon resonance (on a Biacore T200 instrument) to identify which of the molecules calculated to bind to Sites 1 and 2 on CD81 actually bind to a recombinant form of the protein (CD81-LEL). Twenty-six of the molecules provided a positive change in response units (RU) upon introduction to a chip containing the immobilized protein (Table A), indicating the ligands bound to the protein. The measured responses for the ligands that bound varied from 2.3 to 78.4 RU. Those ligands providing the largest responses tended to be molecules that were calculated to bind more deeply inside cavities in Site 1 (ligands 30930, 98026, 7436, 5069), Site 2 (ligands 127947, 38743) or Site 4 (ligands 78623, 16631).
Experimental analysis of ligand binding to recombinant CD81 LEL. Forty ligands calculated by AutoDock to bind to sites 1 and 2 on CD81-LEL were tested experimentally using surface Plasmon resonance as described in the Materials and Methods section. Ligand code numbers are those assigned by the National Cancer Institute. […] Because the binding experiments were performed by passing the same concentration of each ligand sequentially across the same protein coated chip using both techniques, the magnitude of the responses can be used to provide an approximate ranking of binding strength.

[2] = target: T2, native CD81 on Raji cells (Homo sapiens, UniProt P60033); assay: Competition assay: inhibition of FITC-labeled JS-81 anti-CD81 antibody binding to native CD81 on live Raji cells (flow cytometry); format: cell-based
T2 construct: endogenous in cells; host or cells: Raji (human B cell line)
T2 sequence (P60033 1-236): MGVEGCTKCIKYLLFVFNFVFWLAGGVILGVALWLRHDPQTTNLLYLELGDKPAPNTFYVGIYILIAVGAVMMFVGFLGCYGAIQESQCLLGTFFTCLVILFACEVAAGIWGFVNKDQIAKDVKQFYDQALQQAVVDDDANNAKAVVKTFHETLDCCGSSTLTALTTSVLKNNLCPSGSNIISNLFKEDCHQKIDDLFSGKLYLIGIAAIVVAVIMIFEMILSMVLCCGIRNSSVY
Excerpt: A subset of these ligands and some of those listed in the patent have been tested to identify those ligands that bind to the correct region of the CD81 protein and for binding to native CD81 on living cells (a Raji cell line). This assay tests three concentrations of the ligand to determine if the ligand is capable of inhibiting the binding of an antibody called JS-81. This antibody is known to bind to the region of the CD81 protein we have targeted. If the ligand decreases JS-81 binding as you increase the concentration of the ligand, it is 1) binding to native CD81 on the Raji cells and 2) it is binding to the correct region of the protein.
For antibody neutralization assay Raji cells were used, a human B cell line that expressed high amounts of CD81 on the surface (data not shown). Cells were grown in RPMI medium (10% FCS, 1% penicillin/streptomycin, 1% L-glutamine, 1% non-essential amino acids, 1% sodium pyruvate, pH 7.4, at 37° C. with 5% CO2). 2×10^5 cells were incubated with or without different concentrations (50 μM, 100 μM, 400 μM and 1 mM) of indicated inhibitor for 20 min at room temperature, subsequently 1 ul (16 ng/μl) of FITC-labeled anti CD81 antibody (BD Pharmingen, 551108) was added to the cells and incubated for 20 min (antibody titration was performed to obtain a working dilution range, data not shown). Cells were washed and analyzed by flow cytometry using fluorescence-activated cell sorting (FACS) (BD FACSCalibur, software: Cell Quest Pro). Mean Fluorescence Intensity MFI was calculated using Flowjo software (TreesStar, www.flowjo.com).

recombinant CD81-LEL = target: T3, recombinant CD81-LEL (Homo sapiens, UniProt P60033); assay: SPR (Biacore T100) binding of additional ligands to immobilized CD81-LEL (Example 6); conditions: Table E, ligand 200 uM in PBS-1% DMSO
T3 construct: the large extracellular loop of CD81 (CD81-LEL); GST; His; Shoshana Levy Lab, Stanford (gift)
T3 sequence (P60033 113-201 limits assumed): T1 sequence (P60033 113-201 limits assumed)
Experimental: SPR analysis was performed using a Biacore T100 workstation (GE Healthcare, NJ, USA). A recombinant form of the CD81-LEL protein with a GST-tag (Shoshana Levy Lab-Stanford) was used to determine the binding affinities of the ligands in the above list. 10 uM CD81-LEL-His diluted into 10 mM sodium acetate buffer pH 4.5 was immobilized for […] at a flow speed of 5 ul/min onto a CM5 sensor chip using amine coupling (EDC-NHS). Approximately 20,000 RU of protein were immobilized on the chip. The ligands were prepared as 200 uM solutions in PBS-1% DMSO (the running buffer) and they were introduced to the protein using a pre-programmed 3 min association and 1 min dissociation interval. Ligands that bind have a positive RU (response units) number and the strength of binding to the CD81 protein is related to the magnitude of the RU number; the larger the number the more binding.

Compound | SPR Response Units [1] | Inhibition of JS-81 Binding (%) ([2]; 50 μM ligand) | Inhibition of JS-81 Binding (%) ([2]; 100 μM ligand) | Inhibition of JS-81 Binding (%) ([2]; 400 μM ligand) | Binding (RU) (recombinant CD81-LEL)
O=C(O)CC1OCC=C2CN3CCC45C6=CC(=O)C(=O)C([N+](=O)[O-])=C6NC4C1C2CC35 (stereo not shown) [Ligand 5069] | 67.5 RU |  |  |  | 
CC(C)(C)c1ccc(NS(=O)(=O)c2ccc(N)cc2)cc1 [Ligand 7436] | 78.4 RU | 0% | 12% | 11% | 
O=C(O)CSc1nc2ccccc2s1 [Ligand 11891] | 15.2 RU |  |  |  | 
O=C(O)c1ccc(O)c(O)c1 [Ligand 16631] | 61.8 RU |  |  |  | 
O=C(O)/C=C\c1cc2c(cc1[N+](=O)[O-])OCO2 [Ligand 21034] | 21.1 RU |  |  |  | 
CC(C)OC1CCCC(O)C1CC(=O)O (stereo not shown) [Ligand 25368] | 13.3 RU |  |  |  | 
Cc1ccc(-c2cc(C(=O)O)c3ccccc3n2)c(C)c1 [Ligand 25678] |  | 0% | 4% | 19% | 11.1 RU
O=C(O)/C(=C/c1ccccc1)c1ccccc1 [Ligand 40614] |  | 0% | 8% | 26% | 50.8 RU
CC(C)CNC(=O)/C=C\C(=O)O [Ligand 55573] | 10.6 RU |  |  |  | 
O=C(O)CCCCC1SCC2NC(=O)NC21 (stereo not shown) [Ligand 63865] | 58 RU |  |  |  | 
O=C(Nc1ccc(O)c(C(=O)O)c1)Oc1ccccc1 [Ligand 68971] | 12.1 RU |  |  |  | 
N=C(N)N/N=C/c1c(Cl)cccc1Cl [Ligand 68982] | 41.2 RU | 0% | 13% | 15% | 
Nc1nc(O)c(CC(=O)O)s1 [Ligand 70980] | 14.1 RU |  |  |  | 
COc1cc(-c2ccc(Nc3ccccc3C(=O)O)c(OC)c2)ccc1Nc1ccccc1C(=O)O [Ligand 73735] | 1957.8 RU | 0% | 0% | 24% | 
O=C(O)Cn1ccc2ccccc21 [Ligand 75866] |  | 0% | 1% | 31% | 18.9 RU
NC(=O)CCC(C(=O)O)N1C(=O)c2ccc(O)cc2C1=O (stereo not shown) [Ligand 78623] | 54.5 RU |  |  |  | 
c1cncc(C2CCCCN2)c1 (stereo not shown) [Ligand 87504] |  | 0% | 6% | 20% | 57.9 RU
Cc1cc(C)c(N)c(C(=O)O)c1 [Ligand 90444] |  | 0% | 0% | 24% | 13.1 RU
O=C(O)c1cc(O)ccc1/N=N/c1ccccc1 [Ligand 106863] |  | 0% | 0% | 19% | 11.6 RU
NC(=O)NC(=O)c1nccnc1C(=O)O [Ligand 117922] |  | 0% | 12% | 26% | 10.2 RU
CCCNC1=C(C)C(=O)C2=C(C1=O)C(COC(N)=O)C1(OC)C3NC3CN21 (stereo not shown) [Ligand 123115] | 34.5 RU |  |  |  | 
NS(=O)(=O)c1ccc(/N=N/c2c(O)c(C(=O)O)cc3ccccc23)cc1 [Ligand 134137] |  | 0% | 6% | 26% | 10 RU
O=C(O)/C=C\C(=O)Nc1cccc2cccnc12 [Ligand 144958] |  | 0% | 54% | 12% | 4.1 RU
COc1cc(CCC(=O)O)on1 [Ligand 303800] | 7.8 RU |  |  |  | 
COc1ccccc1/C=C(\C#N)C(=O)O [Ligand 638134] | 25 RU |  |  |  | 
